Data published in patent US20200289474A1, “METHODS OF TREATING PAIN WITH A THIAZOLINE ANTI-HYPERALGESIC” (priority 2019, published 2020).
Entries after “also recorded” stand apart in the source; their conditions may differ.

Tested on: incision-induced hyperalgesia
Assay: Brennan incisional model, prophylactic paradigm
Assay type: in vivo, rat
Text: Two incisional pain models were used to assess Compound 1 effects on hyperalgesia. The first model is referred to as the Brennan model in which, under anesthesia, a 1 cm longitudinal incision to the skin and underlying fascia of a rat hindpaw is made. The second is a variation but is a more invasive procedure in which the skin and muscle are spread apart using forceps which creates a longer-lasting hypersensitivity.
Using the Brennan protocol and a prophylactic paradigm, Compound 1 (3 doses given PO) or vehicle was administered 15 min prior to incision. At the 24-, 48-, and 72-h time points post-incision, mechanical thresholds were obtained (manual von Frey filament, using up/down method).
In a subsequent experiment, the same paradigm was used with Compound 1 administered at a dose of 30 mg/kg PO along with positive control group consisting of celecoxib (30 mg/kg PO), morphine (10 mg/kg SC), and vehicle.

## CC1(C)SC(Nc2ccccc2O)=N[C@@H]1C(=O)O.Cl [Compound 1, (R)-2-(2-hydroxyphenylamino)-5,5-dimethyl-4,5-dihydrothiazole-4-carboxylic acid mono-hydrochloride]
10 mg/kg PO single dose 15 min prior to incision, mono-hydrochloride
  hyperalgesia, effect relative to vehicle: statistically significant reversal of hyperalgesia; also recorded: statistically significant effect
30 mg/kg PO single dose
  hyperalgesia, effect relative to vehicle: full efficacy
3 doses PO, 15 min prior to incision, 24, 48, 72 h post-incision
  hyperalgesia, mechanical thresholds (von Frey) relative to vehicle: reversal of hyperalgesia in a dose-dependent manner
